Test results from the CATMoS acute toxicity set (Mansouri et al. 2021).

Test: GHS categories as the set defines them, by LD50: 1 up to 5, 2 up to 50, 3 up to 300, 4 up to 2000, 5 above 2000 mg/kg
Details: rat; in vivo; po

Structure (SMILES)	GHS category
Cc1cc(CCCCCCCOc2ccc(C3=NCCO3)cc2)on1	5
CCCCOC(=O)C(=O)[C@H]1[C@H](C)C[C@H]2[C@@H]3C[C@H](F)C4=CC(=O)C=C[C@]4(C)[C@H]3[C@@H](O)C[C@@]21C	5
Cc1cc(C2(c3ccc(O)cc3)NC(=O)NC2=O)ccc1O (stereo not drawn)	5
CC1=NN(c2cccc(S(=O)(=O)O)c2)C(=O)C1/N=N/c1cc(Cl)c(C)cc1S(=O)(=O)O (stereo not drawn)	5
C#CCOc1cc(-n2nc3n(c2=O)CCCC3)c(Cl)cc1Cl	5
CCC(C)n1ncn(-c2ccc(N3CCN(c4ccc(O)cc4)CC3)cc2)c1=O (stereo not drawn)	5
CCCN(CC)CC1COC2(CCC(C(C)(C)C)CC2)O1 (stereo not drawn)	4
C=C(C)C(=O)OCCOC(=O)Oc1ccc(C(C)(C)c2ccc(OC(=O)OCCOC(=O)C(=C)C)cc2)cc1	5
CC(C)COC(=O)Nc1nc(N2CC=CCC2)cc2nc(=O)on12	5
NC(=O)[C@@H]1CCCN1C(=O)[C@H](Cc1cnc[nH]1)NC(=O)[C@@H]1CCC(=O)N1	5
CC1=C(C/C=C(\C)CCC[C@H](C)CCC[C@H](C)CCCC(C)C)C(=O)c2ccccc2C1=O	5
CN1OCCC(=Cc2cc(C(C)(C)C)c(O)c(C(C)(C)C)c2)C1=O	4
O=C(Nc1ccc(F)cc1F)c1cccnc1Oc1cccc(C(F)(F)F)c1	5
Clc1cc(Cl)c2oc(C3(Cn4cncn4)OCCO3)cc2c1	4
CCCc1c(Cc2ccc(-c3ccccc3-c3nn[nH]n3)cc2)c(=O)nc2[nH][nH]c(=O)n12	4
CC(=O)C1(c2ccccc2)CCN(CCCOc2ccc3c(c2)NC(=O)CC3)CC1	4
CCO[Si](CCCOCC1CO1)(OCC)OCC (stereo not drawn)	5
CCCCCCCCCCCCCC(=O)OC(C)C	5
CCc1ccccc1OP(=O)(Oc1ccccc1CC)Oc1ccccc1CC	5
COc1cc(C#N)cc(OC)c1O	5
CNC(C)C(O)c1ccc(NS(C)(=O)=O)cc1 (stereo not drawn)	5
CC[C@H](C)[C@@H]1NC(=O)[C@H](Cc2ccc(O)cc2)NC(=O)[C@@H](N)CSSC[C@@H](C(=O)N2CCC[C@H]2C(=O)N[C@@H](CC(C)C)C(=O)NCC(N)=O)NC(=O)[C@H](CC(N)=O)NC(=O)[C@H](CCC(N)=O)NC1=O	2

Structure (SMILES)	GHS category
CCOC(=O)c1cnn(C)c1S(=O)(=O)NC(=O)Nc1nc(OC)cc(OC)n1	5
Cc1c(N)nc(C(CC(N)=O)NCC(N)C(N)=O)nc1C(=O)NC(C(=O)NC(C)C(O)C(C)C(=O)NC(C(=O)NCCc1nc(-c2nc(C(=O)NCCCN[C@@H](C)c3ccccc3)cs2)cs1)C(C)O)C(O[C@@H]1O[C@@H](CO)[C@@H](O)[C@H](O)[C@@H]1O[C@H]1O[C@H](CO)[C@@H](O)[C@H](OC(N)=O)[C@@H]1O)c1c[nH]cn1 (stereo partly drawn)	5
O=C(O)c1[nH]n(-c2ccc(S(=O)(=O)O)cc2)c(=O)c1/N=N/c1ccc(S(=O)(=O)O)cc1	5
CCOc1ccccc1NC(=O)C(=O)Nc1ccccc1CC	5
CCCOC(=O)Cc1ccc(OCC(=O)N(CC)CC)c(OC)c1	5
CCO[Si](OCC)(OCC)N(CC)CC	4
CC(=O)CC(=O)Nc1cc(Cl)c(NC(=O)CC(C)=O)cc1C	5
CCOC(=O)C(=O)Nc1cc(SCCOC(=O)C(=O)OCC)nc(C)n1	4
CCCCC1C(=O)N(c2ccccc2)N(c2ccc(S(C)(=O)=O)cc2)C1=O (stereo not drawn)	4
COc1ccc(C(=O)C2CC2)cc1	4
CCC/C=C/COC(=O)CC	5
CC1CC(OC(=O)C(C)Oc2cccc(C(F)(F)F)c2)CC(C)(C)C1 (stereo not drawn)	5
CO[C@@]1(NC(=O)C(C(=O)O)c2ccc(O)cc2)C(=O)N2C(C(=O)O)=C(CSc3nnnn3C)CO[C@@H]21 (stereo partly drawn)	5
COc1ccccc1C1C(Cl)C(=O)N1NC(=O)c1ccccc1O (stereo not drawn)	5
Nc1cc(C(=O)O)ccc1Cl	5
CCCCCCCCCCCCCCCCCC(=O)OCCO	5
COc1nc(Nc2ccc(C=Cc3ccc(Nc4nc(OC)nc(N(CCO)CCO)n4)cc3S(=O)(=O)O)c(S(=O)(=O)O)c2)nc(N(CCO)CCO)n1	5
CCOCCC(C)CCC=C(C)C (stereo not drawn)	5
O=C1CCc2c(cccc2OCCCN2CCC(Cc3ccccc3)CC2)N1	4
C[Si]1(C)O[Si](C)(C)O[Si](C)(C)O[Si](C)(C)O[Si](C)(C)O[Si](C)(C)O1	5
CC(C)C1CCCCC1	5
CCOC(=O)C(=O)Nc1cc(OCCOCCOC)ncn1	4

Structure (SMILES)	GHS category
CO[C@@]1(NC(=O)C2SC(=C(C(N)=O)C(=O)O)S2)C(=O)N2C(C(=O)O)=C(CSc3nnnn3C)CS[C@@H]21 (stereo partly drawn)	5
Cc1ccc(C2OC[C@@H]3OC(c4ccc(C)c(C)c4)O[C@H]([C@H](O)CO)[C@@H]3O2)cc1C (stereo partly drawn)	5
CC(=O)Nc1ccc(NC(=O)c2cc3ccccc3cc2O)cc1	5
COc1ccc(CC(C)NCC(O)c2ccc(O)c(CO)c2)cc1 (stereo not drawn)	4
Cc1ccn2c(=O)c(C(=O)NC3CCCC3)cnc2c1	3
CC(=O)c1ccc2c(c1)OCC(=O)N2C	5
CCCCCCCCC=CCCCCCCCC(=O)OC(C)C	5
CCN(CC)CCN(CCN(CC)CC)n1cc(-c2ccc(Cl)cc2)c2cc(C)ccc21	4
CSCCC(NC(=O)C(N)Cc1c[nH]c2ccccc12)C(=O)NC(CC(=O)O)C(=O)NC(Cc1ccccc1)C(N)=O (stereo not drawn)	5
CCC(=O)OCC(C)(C)OC(C)C1CCCC(C)(C)C1 (stereo not drawn)	5
COC(=O)Nc1nc2cc(Sc3ccccc3)ccc2[nH]1	5
CCCCCCCCOC(=O)CCc1cc(C(C)(C)C)c(O)c(C(C)(C)C)c1	5
CCCC(=O)NC(C)C(=O)O (stereo not drawn)	5
CC(C)(C)OOC(C)(C)c1cccc(C(C)(C)OOC(C)(C)C)c1	5
COc1ccccc1C(=O)NS(=O)(=O)c1ccc(C(=O)NC2CC2)cc1	5
Nc1ccc2c(c1)C(=O)c1ccccc1C2=O	5
CC(C)=CCC/C(C)=C/COCC=O	5
Cc1ccc2[nH]c3cc4c(=O)c5cc(C)ccc5[nH]c4cc3c(=O)c2c1	5
CCCCCCCCCCCCCO[PH](=O)OCCCCCCCCCCCCC	5
CN1C[C@H](c2ccnn2C)CC2c3cccc4[nH]cc(c34)C[C@H]21 (stereo partly drawn)	4
CC(CC(C)(C)C)CC(C)(C)CC(C)(C)C (stereo not drawn)	5
O=C1OCCN1N=Cc1c(N2CCCCCC2)nc2ccccn2c1=O	4

Structure (SMILES)	GHS category
CCCCCCCCCCCCCCCCCC(=O)OC(CO)COC(=O)CCCCCCCCCCCCCCC (stereo not drawn)	5
FC(F)(F)c1cccc(-n2nc(OCCN3CCCCC3)c3cccnc32)c1	4
CO/N=C(\C(=O)N[C@@H]1C(=O)N2C(C(=O)OCOC(=O)C(C)(C)C)=C(/C=C\c3scnc3C)CS[C@H]12)c1csc(N)n1	5
O=C(O)c1cc(Nc2ccccc2)c(C(=O)O)cc1Nc1ccccc1	5
CCCCOC(=O)C(C)O (stereo not drawn)	5
C=CCc1cc(C(C)(C)c2ccc(O)c(CC=C)c2)ccc1O	5
CNC(=O)C(=NNc1cccc(Cl)c1Cl)C(C)=O	5
CC(COc1ccc(Oc2ccccc2)cc1)Oc1ccccn1 (stereo not drawn)	5
c1ccc(CSCc2ccccc2)cc1	5
O=S(=O)(O)c1cc(-n2ncc(-c3ccccc3)n2)ccc1C=Cc1ccc(-n2ncc(-c3ccccc3)n2)cc1S(=O)(=O)O	5
CCO[Si](CN1CCOCC1)(OCC)OCC	5
CC(=O)NC1CCc2nc(N)sc2C1 (stereo not drawn)	5
CNC(=O)C(=NNc1cc([N+](=O)[O-])ccc1OC)C(C)=O	5
COc1ccc(-c2nc(C)c(C(N)=O)s2)cc1	5
CC(C)(Oc1ccc(Cl)cc1)C(=O)NC(=O)NCN1CCOCC1	5
C=CCCCCCCCCC(=O)NCC(=O)O	5
O=C(O)c1cc(O)ccc1Nc1ccc(O)c(C(F)(F)F)c1	4
CC(C)(C)C(O)/C=C/c1ccc2c(c1)OCO2 (stereo not drawn)	5
O=C(O)c1ccccc1C(=O)N1CCSC1	5
CN1CC(O)N(c2cc(C(C)(C)C)on2)C1=O (stereo not drawn)	4
COc1cc(C=CC(=O)CC(=O)C=Cc2ccc(O)c(OC)c2)ccc1O	5
Cc1c([N+](=O)[O-])cc2c(c1[N+](=O)[O-])C(C)(C)CC2(C)C	5

Structure (SMILES)	GHS category
CCC(=O)OCC(=O)[C@@]1(OC(=O)CC)[C@@H](C)C[C@H]2[C@@H]3CCC4=CC(=O)C=C[C@]4(C)[C@@]3(Cl)[C@@H](O)C[C@@]21C	5
CC(C)S	5
COCC1CN(c2ccc(OCc3cccc(C#N)c3)cc2)C(=O)O1 (stereo not drawn)	5
CCCc1c(Cc2ccc(-c3ncccc3-c3nn[nH]n3)cc2)c(=O)nc2nc[nH]n12	4
FC(F)(F)c1cccc(N2CCc3ccccc3C2c2ccccc2)c1 (stereo not drawn)	4
CC(=O)OC1C(N2CCCC2)CC2C3CCC4CC(O)C(N5CCOCC5)CC4(C)C3CCC21C (stereo not drawn)	5
CCCCCCCCCC(=O)Oc1ccc(C(=O)O)cc1	5
Nc1nccnc1C(=O)O	5
CCCCCC(O)CC (stereo not drawn)	5
O=[N+]([O-])c1cccc(C=NOCc2cccc([N+](=O)[O-])c2)c1	4
Cc1cc(C)c(C=O)c(C)c1	5
CCC(=O)OC(C)(C)Cc1ccccc1	5
CC1Oc2cc(C(=O)c3cccs3)ccc2N(C)C1=O (stereo not drawn)	5
COC(C)CCO (stereo not drawn)	5
CCCCCCCCC=CCCCCCCCC(=O)OCC(COC(=O)CCCCCCCC=CCCCCCCCC)(COC(=O)CCCCCCCC=CCCCCCCCC)COC(=O)CCCCCCCC=CCCCCCCCC (stereo not drawn)	5
O=C1CC(N2C(=O)c3ccccc3C2=O)CC(=O)N1	5
CC/C=C\CC(C)OC(=O)c1ccccc1O (stereo not drawn)	5
CCCC1CCC(=O)O1 (stereo not drawn)	5
CC1=CC1	5
CCc1cccc(CC)c1NC(=O)c1sc(N)nc1C	4
